These results are taken from patent publication US12162858B2, “Quinoline derivatives as inhibitors of AXL/MER RTK and CSF1R” (QURIENT CO., LTD., priority 2018, dated 2024).

The target of one experiment is T1, Axl (Homo sapiens, UniProt P30530).
T1 sequence (P30530 26-894): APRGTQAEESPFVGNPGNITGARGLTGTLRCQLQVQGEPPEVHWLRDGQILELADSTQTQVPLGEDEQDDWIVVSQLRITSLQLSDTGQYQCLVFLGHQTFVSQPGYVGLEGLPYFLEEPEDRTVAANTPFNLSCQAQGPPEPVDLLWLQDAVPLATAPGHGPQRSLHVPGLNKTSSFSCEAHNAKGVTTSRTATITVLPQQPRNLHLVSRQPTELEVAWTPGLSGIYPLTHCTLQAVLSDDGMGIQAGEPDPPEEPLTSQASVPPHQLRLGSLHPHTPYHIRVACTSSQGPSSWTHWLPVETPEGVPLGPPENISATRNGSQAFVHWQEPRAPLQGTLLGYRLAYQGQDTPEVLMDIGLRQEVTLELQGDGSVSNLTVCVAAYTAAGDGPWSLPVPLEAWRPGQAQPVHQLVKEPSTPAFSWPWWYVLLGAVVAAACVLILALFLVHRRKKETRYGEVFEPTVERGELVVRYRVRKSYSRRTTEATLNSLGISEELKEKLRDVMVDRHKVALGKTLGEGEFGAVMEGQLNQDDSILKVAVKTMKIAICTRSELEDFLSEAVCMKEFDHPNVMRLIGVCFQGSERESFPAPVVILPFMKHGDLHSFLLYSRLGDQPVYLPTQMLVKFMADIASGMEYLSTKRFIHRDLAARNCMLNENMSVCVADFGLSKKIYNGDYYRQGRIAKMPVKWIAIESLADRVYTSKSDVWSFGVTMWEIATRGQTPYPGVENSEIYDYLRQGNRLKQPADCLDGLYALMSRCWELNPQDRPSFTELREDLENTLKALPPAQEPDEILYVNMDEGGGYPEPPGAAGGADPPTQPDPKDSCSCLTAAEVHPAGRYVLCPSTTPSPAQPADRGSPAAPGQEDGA
Briefly: LanthaScreen Eu kinase binding assay for Axl. Conditions: read-out: Axl kinase binding activity (Kd). In short, it runs like this:
(§1)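 Kd values come from control-normalized FRET loss, referenced to DMSO vehicle wells, after 1 h at room temperature. Each compound was serially diluted over eight steps in DMSO and competed against Tracer 236 (Alexa Fluor 647) for the kinase, which was tagged by a Eu anti-GST antibody.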

The target of the next experiment is T2, Mer (Homo sapiens, UniProt Q12866).
T2 construct: purchased Life Technologies
T2 sequence (Q12866 21-999): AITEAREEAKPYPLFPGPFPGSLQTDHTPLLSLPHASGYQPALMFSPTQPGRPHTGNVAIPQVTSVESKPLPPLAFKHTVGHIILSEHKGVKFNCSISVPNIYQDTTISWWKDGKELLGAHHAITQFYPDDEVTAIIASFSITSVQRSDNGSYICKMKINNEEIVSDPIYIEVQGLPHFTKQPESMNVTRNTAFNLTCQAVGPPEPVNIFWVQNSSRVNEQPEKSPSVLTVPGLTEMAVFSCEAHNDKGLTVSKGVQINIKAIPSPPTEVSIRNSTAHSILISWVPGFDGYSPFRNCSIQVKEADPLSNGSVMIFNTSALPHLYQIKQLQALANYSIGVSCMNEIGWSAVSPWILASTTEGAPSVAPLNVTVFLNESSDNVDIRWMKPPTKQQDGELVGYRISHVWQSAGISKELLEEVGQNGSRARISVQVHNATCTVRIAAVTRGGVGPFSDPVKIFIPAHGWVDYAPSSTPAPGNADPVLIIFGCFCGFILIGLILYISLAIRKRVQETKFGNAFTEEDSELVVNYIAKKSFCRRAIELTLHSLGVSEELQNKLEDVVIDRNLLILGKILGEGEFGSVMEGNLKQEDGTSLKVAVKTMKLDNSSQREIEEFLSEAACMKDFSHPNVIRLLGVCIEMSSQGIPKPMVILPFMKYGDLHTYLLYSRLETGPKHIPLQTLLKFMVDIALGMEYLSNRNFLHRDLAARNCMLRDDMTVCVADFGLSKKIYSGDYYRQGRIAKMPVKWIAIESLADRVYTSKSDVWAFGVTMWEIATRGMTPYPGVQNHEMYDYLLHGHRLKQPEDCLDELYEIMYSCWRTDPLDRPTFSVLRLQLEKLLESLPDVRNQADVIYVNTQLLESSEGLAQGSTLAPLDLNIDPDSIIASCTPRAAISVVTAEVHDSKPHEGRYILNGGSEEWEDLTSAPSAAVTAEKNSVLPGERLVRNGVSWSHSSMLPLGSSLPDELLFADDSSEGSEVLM
Kind of experiment: LanthaScreen Eu kinase binding assay for Mer. To be noted: read-out: Mer kinase binding activity (Kd). A digest of the protocol: as §1

`COc1cc2nccc(Oc3ccc(NC(=O)c4nn(CC(C)O)cc4OCC(F)(F)F)nc3)c2cc1OC` (stereo not shown) [Compound 17]: the equilibrium dissociation constant (Kd) at Axl and on Mer was < 0.1 µM in each case.

Consider `COc1cc2nccc(Oc3ccc(NC(=O)c4nn(CC5CCNC5)cc4OCC(F)(F)F)nc3)c2cc1OC` (stereo not shown) [Compound 72], for which the dissociation constant (Kd) at Axl and on Mer was < 0.1 µM throughout.

As for `COc1cc2nccc(Oc3ccc(NC(=O)c4nn(C5CCCC5)cc4OCC(F)(F)F)nc3)c2cc1OC` [Compound 40], the Kd on Axl and at Mer was < 0.1 µM in each case.

Turning to `COc1cc2nccc(Oc3ccc(NC(=O)c4sc(C5CC5)cc4OCC(F)(F)F)nc3)c2cc1OC` [Compound 179], the Kd on Axl and on Mer was 0.1 to 0.5 µM each time.

Turning to `COc1cc2nccc(Oc3ccc(NC(=O)c4nn(C5CCCC5)cc4OCC(F)(F)F)cc3F)c2cc1OC` [Compound 52], the Kd on Axl and on Mer was < 0.1 µM in each case.

`COc1cc2nccc(Oc3ccc(NC(=O)c4nn(C5CC5)cc4OCCC(F)(F)F)nc3)c2cc1OC` [Compound 170]: the dissociation constant Kd at Axl and at Mer was < 0.1 µM in each case.

For the compound `COc1cc2nccc(Oc3ccc(NC(=O)c4nn(CCNC5CC5)cc4OCC(F)(F)F)nc3)c2cc1OC` [Compound 168], the Kd on Axl and on Mer was < 0.1 µM each time.

For the compound `COc1cc2nccc(Oc3ccc(NC(=O)c4nn(C5CCC5)cc4OCC(F)(F)F)nc3)c2cc1OC` [Compound 24], the Kd at Axl and at Mer was < 0.1 µM each time.

As to `CCCn1cc(N(C)CC2CCOCC2)c(C(=O)Nc2ccc(Oc3ccnc4cc(OC)c(OC)cc34)cn2)n1` [Compound 34], the figures for the dissociation constant (Kd) on Axl and on Mer were ≥ 0.5 µM and 0.1 to 0.5 µM, respectively.

Regarding `COc1cc2nccc(Oc3ccc(NC(=O)c4nn(CCO)cc4OCC(F)(F)F)cc3C)c2cc1OC` [Compound 56], the dissociation constant Kd on Axl is 0.1 to 0.5 µM; on Mer it was < 0.1 µM.

Take `COc1cc2nccc(Oc3ccc(NC(=O)c4nn(C(C)C)c(C)c4OCC(F)(F)F)nc3)c2cc1OC` [Compound 2]: the equilibrium dissociation constant (Kd) on Axl and at Mer was < 0.1 µM in each case.

As a reminder, the Kd is the equilibrium constant for the complex coming apart.
